Biological target: T1, Cbl-b (Homo sapiens, UniProt Q13191)
T1 construct: Cbl-b-HiBit KI Jurkat Cells were purchased from Promega; host or cells: Cbl-b-HiBiT knock-in Jurkat cells
Assay: Cbl-b Degradation Method B (Nano-Glo HiBiT lytic detection)
Type: cell-based
Conditions: Cbl-b-HiBit KI Jurkat Cells, incubated at least 6-24 hours; for DC50: half maximal degradation, read-out: Cbl-b Degredation Method B IC50; for Dmax: maximum degradation observed, read-out: Cbl-b Degredation Method B Dmax (%)
In short: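 Cbl-b-HiBiT knock-in Jurkat cells (20,000/well) were treated after ~24 h plating with an 11-point 1:3 series for 6-24 h at 37° C. Remaining Cbl-b measured by Nano-Glo HiBiT lytic luminescence. DC50 and Dmax expressed as % of control.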

T1 sequence (Q13191 whole entry): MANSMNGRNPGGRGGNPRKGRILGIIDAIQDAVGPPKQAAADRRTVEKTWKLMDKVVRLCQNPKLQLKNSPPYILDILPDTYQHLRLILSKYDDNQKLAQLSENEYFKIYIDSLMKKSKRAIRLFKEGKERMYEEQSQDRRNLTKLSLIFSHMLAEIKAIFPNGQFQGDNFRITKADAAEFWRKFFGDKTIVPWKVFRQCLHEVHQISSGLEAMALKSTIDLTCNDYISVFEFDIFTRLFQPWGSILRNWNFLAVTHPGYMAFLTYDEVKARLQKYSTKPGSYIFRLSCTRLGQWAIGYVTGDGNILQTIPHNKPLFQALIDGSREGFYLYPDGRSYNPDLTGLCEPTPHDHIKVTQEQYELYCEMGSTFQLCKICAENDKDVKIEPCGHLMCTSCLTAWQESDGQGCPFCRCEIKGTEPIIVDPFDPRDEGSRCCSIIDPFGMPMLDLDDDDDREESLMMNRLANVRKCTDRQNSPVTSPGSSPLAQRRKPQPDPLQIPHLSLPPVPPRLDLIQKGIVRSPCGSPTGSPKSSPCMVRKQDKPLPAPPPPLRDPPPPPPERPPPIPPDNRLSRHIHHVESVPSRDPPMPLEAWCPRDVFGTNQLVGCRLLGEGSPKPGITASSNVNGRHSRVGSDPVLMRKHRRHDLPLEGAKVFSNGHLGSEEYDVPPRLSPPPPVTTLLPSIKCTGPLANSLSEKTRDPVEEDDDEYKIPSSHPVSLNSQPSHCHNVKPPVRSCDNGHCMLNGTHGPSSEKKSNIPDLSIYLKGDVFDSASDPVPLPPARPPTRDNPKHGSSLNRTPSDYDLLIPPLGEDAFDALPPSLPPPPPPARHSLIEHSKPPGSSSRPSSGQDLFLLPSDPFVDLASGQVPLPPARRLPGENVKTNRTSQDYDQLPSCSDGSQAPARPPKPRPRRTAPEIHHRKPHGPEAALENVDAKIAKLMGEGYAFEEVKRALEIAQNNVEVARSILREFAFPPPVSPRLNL

SMILES | DC50 | Dmax
CC1c2nc(N3CCC(O[C@H]4CC[C@H](CN5CCN(Cc6cc7c(c(C(F)(F)F)c6)CN(c6cccc([C@]8(Cc9nncn9C)C[C@@H](C#N)C8)c6)C7=O)C(C)(C)C5)CC4)CC3)ccc2C(=O)N1C1CCC(=O)NC1=O (some centres unmarked) [Example 152, 3-[3-[6-[[4-[[4-[[1-[6-(2,6-dioxo-3-piperidyl)-7-methyl-5-oxo-7H-pyrrolo[3,4-b]pyridin-2-yl]-4-piperidyl]oxy]cyclohexyl]methyl]-2,2-dimethyl-piperazin-1-yl]methyl]-1-oxo-4-(trifluoromethyl)isoindolin-2-yl]phenyl]-3-[(4-methyl-1,2,4-triazol-3-yl)methyl]cyclobutanecarbonitrile] | < 5 nM | 35 to 70%
CC1c2nc(N3CCC(O[C@H]4CC[C@H](CN5CCCN(c6cc7c(c(C(F)(F)F)c6)CN(c6cccc([C@]8(Cc9nncn9C)C[C@@H](C#N)C8)c6)C7=O)CC5)CC4)CC3)ccc2C(=O)N1C1CCC(=O)NC1=O (some centres unmarked) [Example 180, (1r,3r)-3-[(4-methyl-4H-1,2,4-triazol-3-yl)methyl]-3-{3-[1-oxo-6-(4-{[(1r,4r)-4-({1-[6-(2,6-dioxopiperidin-3-yl)-7-methyl-5-oxo-5H,6H,7H-pyrrolo[3,4-b]pyridin-2-yl]piperidin-4-yl}oxy)cyclohexyl]methyl}-1,4-diazepan-1-yl)-4-(trifluoromethyl)-2,3-dihydro-1H-isoindol-2-yl]phenyl}cyclobutane-1-carbonitrile] | < 5 nM | < 35%
CC1c2nc(N3CCC(O[C@H]4CC[C@H](CN5C[C@@H]6C[C@H]5CN6c5cc6c(c(C(F)(F)F)c5)CN(c5cccc([C@]7(Cc8nncn8C)C[C@H](C#N)C7)c5)C6=O)CC4)CC3)ccc2C(=O)N1C1CCC(=O)NC1=O (stereo partly drawn) [Example 182, (1r,3r)-3-[(4-methyl-4H-1,2,4-triazol-3-yl)methyl]-3-(3-{1-oxo-6-[(1S,4S)-5-{[(1r,4r)-4-({1-[6-(2,6-dioxopiperidin-3-yl)-7-methyl-5-oxo-5H,6H,7H-pyrrolo[3,4-b]pyridin-2-yl]piperidin-4-yl}oxy)cyclohexyl]methyl}-2,5-diazabicyclo[2.2.1]heptan-2-yl]-4-(trifluoromethyl)-2,3-dihydro-1H-isoindol-2-yl}phenyl)cyclobutane-1-carbonitrile] | 5 to 50 nM | < 35%
CC1c2nc(N3CCC(OC4CCC(CN5CC6CCC(C5)N6c5cc6c(c(C(F)(F)F)c5)CN(c5cccc(C7(Cc8nncn8C)CC(C#N)C7)c5)C6=O)CC4)CC3)ccc2C(=O)N1C1CCC(=O)NC1=O (centres unmarked) [Example 183, (1r,3r)-3-[(4-methyl-4H-1,2,4-triazol-3-yl)methyl]-3-{3-[1-oxo-6-(3-{[(1r,4r)-4-({1-[6-(2,6-dioxopiperidin-3-yl)-7-methyl-5-oxo-5H,6H,7H-pyrrolo[3,4-b]pyridin-2-yl]piperidin-4-yl}oxy)cyclohexyl]methyl}-3,8-diazabicyclo[3.2.1]octan-8-yl)-4-(trifluoromethyl)-2,3-dihydro-1H-isoindol-2-yl]phenyl}cyclobutane-1-carbonitrile] | 5 to 50 nM | < 35%
Cc1cc(N2CCC(CN3CCC4(CC3)CN(c3cc5c(c(C(F)(F)F)c3)CN(c3cccc(C6(Cc7nncn7C)CC6)c3)C5=O)C4)CC2)c(F)c2c1C(=O)N(C1CCC(=O)NC1=O)C2 (centres unmarked) [Example 191, 3-{4-fluoro-7-methyl-5-[4-({2-[2-(3-{1-[(4-methyl-4H-1,2,4-triazol-3-yl)methyl]cyclopropyl}phenyl)-3-oxo-7-(trifluoromethyl)-2,3-dihydro-1H-isoindol-5-yl]-2,7-diazaspiro[3.5]nonan-7-yl}methyl)piperidin-1-yl]-1-oxo-2,3-dihydro-1H-isoindol-2-yl}piperidine-2,6-dione] | < 5 nM | 35 to 70%
CC(C)n1c(=O)n(C2CCC(=O)NC2=O)c2ccc(N3CCC(CN4CCC5(CC4)CN(c4cc6c(c(C(F)(F)F)c4)CN(c4cccc([C@]7(Cc8nncn8C)C[C@@H](C#N)C7)c4)C6=O)C5)CC3)cc21 (some centres unmarked) [Example 192, (1r,3r)-3-(3-{6-[7-({1-[1-(2,6-dioxopiperidin-3-yl)-2-oxo-3-(propan-2-yl)-2,3-dihydro-1H-1,3-benzodiazol-5-yl]piperidin-4-yl}methyl)-2,7-diazaspiro[3.5]nonan-2-yl]-1-oxo-4-(trifluoromethyl)-2,3-dihydro-1H-isoindol-2-yl}phenyl)-3-[(4-methyl-4H-1,2,4-triazol-3-yl)methyl]cyclobutane-1-carbonitrile] | < 5 nM | 35 to 70%
Cn1cnnc1C[C@]1(c2cccc(N3Cc4c(cc(CN5CCN(C[C@H]6CC[C@H](OC7CCN(c8cccc(C(=O)NC9CCC(=O)NC9=O)c8)CC7)CC6)CC5)cc4C(F)(F)F)C3=O)c2)C[C@H](C#N)C1 (some centres unmarked) [Example 198, N-(2,6-dioxopiperidin-3-yl)-3-(4-{[(1r,4r)-4-({4-[(3-oxo-2-{3-[(1r,3r)-3-cyano-1-[(4-methyl-4H-1,2,4-triazol-3-yl)methyl]cyclobutyl]phenyl}-7-(trifluoromethyl)-2,3-dihydro-1H-isoindol-5-yl)methyl]piperazin-1-yl}methyl)cyclohexyl]oxy}piperidin-1-yl)benzamide] | 5 to 50 nM | < 35%

The next lines start with the values.

DC50 | Dmax | SMILES
> 500 nM |  | Cc1cc(N2CCC(CN3CCC4(CC3)CN(c3cc(C(F)(F)F)c5cn(-c6cccc([C@]7(Cc8nncn8C)C[C@@H](C#N)C7)c6)nc5c3)C4)CC2)c(F)c2c1C(=O)N(C1CCC(=O)NC1=O)C2 (some centres unmarked) [Example 154, 3-[3-[6-[7-[[1-[2-(2,6-dioxo-3-piperidyl)-4-fluoro-7-methyl-1-oxo-isoindolin-5-yl]-4-piperidyl]methyl]-2,7-diazaspiro[3.5]nonan-2-yl]-4-(trifluoromethyl)indazol-2-yl]phenyl]-3-[(4-methyl-1,2,4-triazol-3-yl)methyl]cyclobutanecarbonitrile]
> 500 nM |  | Cn1cnnc1CC1(c2cccc(-n3cc4c(C(F)(F)F)cc(CN5CCC[C@H](CN6CCC[C@H](CN7CCN(c8ccc9c(c8F)CN(C8CCC(=O)NC8=O)C9=O)CC7)C6)C5)cc4n3)c2)COC1 (stereo partly drawn) [Example 155, 3-[4-fluoro-5-[4-[[(3S)-1-[[(3R)-1-[[2-[3-[3-[(4-methyl-1,2,4-triazol-3-yl)methyl]oxetan-3-yl]phenyl]-4-(trifluoromethyl)indazol-6-yl]methyl]-3-piperidyl]methyl]-3-piperidyl]methyl]piperazin-1-yl]-1-oxo-isoindolin-2-yl]piperidine-2,6-dione]
> 500 nM |  | Cn1cnnc1CC1(c2cccc(N3Cc4c(cc(CN5CCCC(OC6CCN(c7ccc8c(c7F)CN(C7CCC(=O)NC7=O)C8=O)CC6)C5)cc4C(F)(F)F)C3=O)c2)COC1 (centres unmarked) [Example 156, 3-(4-fluoro-5-{4-[(1-{[2-(3-{3-[(4-methyl-4H-1,2,4-triazol-3-yl)methyl]oxetan-3-yl}phenyl)-3-oxo-7-(trifluoromethyl)-2,3-dihydro-1H-isoindol-5-yl]methyl}piperidin-3-yl)oxy]piperidin-1-yl}-1-oxo-2,3-dihydro-1H-isoindol-2-yl)piperidine-2,6-dione]
< 5 nM | > 70% | Cn1cnnc1CC(C)(C)c1cccc(N2Cc3c(cc(CN4CCC[C@H](CN5CCN(C[C@H]6CC[C@@H](OC7CCN(c8ccc9c(c8F)CN(C8CCC(=O)NC8=O)C9=O)CC7)CC6)CC5)C4)cc3C(F)(F)F)C2=O)c1 (stereo partly drawn) [Example 164, 3-[4-fluoro-1-oxo-5-(4-{[(1r,4r)-4-[(4-{[(3S)-1-[(2-{3-[2-methyl-1-(4-methyl-4H-1,2,4-triazol-3-yl)propan-2-yl]phenyl}-3-oxo-7-(trifluoromethyl)-2,3-dihydro-1H-isoindol-5-yl)methyl]piperidin-3-yl]methyl}piperazin-1-yl)methyl]cyclohexyl]oxy}piperidin-1-yl)-2,3-dihydro-1H-isoindol-2-yl]piperidine-2,6-dione]
< 5 nM | 35 to 70% | Cn1cnnc1C[C@]1(c2cccc(N3Cc4c(cc(CN5CCC[C@H](CN6CCN(C[C@H]7CC[C@H](OC8CCN(c9ccc%10c(c9F)CN(C9CCC(=O)NC9=O)C%10=O)CC8)CC7)CC6)C5)cc4C(F)(F)F)C3=O)c2)C[C@@H](C#N)C1 (stereo partly drawn) [Example 168, (1r,3r)-3-[(4-methyl-4H-1,2,4-triazol-3-yl)methyl]-3-[3-(1-oxo-6-{[(3S)-3-[(4-{[(1r,4r)-4-({1-[2-(2,6-dioxopiperidin-3-yl)-4-fluoro-1-oxo-2,3-dihydro-1H-isoindol-5-yl]piperidin-4-yl}oxy)cyclohexyl]methyl}piperazin-1-yl)methyl]piperidin-1-yl]methyl}-4-(trifluoromethyl)-2,3-dihydro-1H-isoindol-2-yl)phenyl]cyclobutane-1-carbonitrile]
> 500 nM |  | Cc1cc(N2CCC(CN3CCCN(c4cc5c(c(C(F)(F)F)c4)CN(c4cccc([C@]6(Cc7nncn7C)C[C@@H](C#N)C6)c4)C5=O)CC3)CC2)c(F)c2c1C(=O)N(C1CCC(=O)NC1=O)C2 (some centres unmarked) [Example 170, (1r,3r)-3-(3-{6-[4-({1-[2-(2,6-dioxopiperidin-3-yl)-4-fluoro-7-methyl-1-oxo-2,3-dihydro-1H-isoindol-5-yl]piperidin-4-yl}methyl)-1,4-diazepan-1-yl]-1-oxo-4-(trifluoromethyl)-2,3-dihydro-1H-isoindol-2-yl}phenyl)-3-[(4-methyl-4H-1,2,4-triazol-3-yl)methyl]cyclobutane-1-carbonitrile]
> 500 nM |  | O=C1CCC(N2Cc3c(ccc(N4CCC(O[C@H]5CC[C@H](CN6CCN(Cc7cc8c(c(C(F)(F)F)c7)CN(c7cccc(C9(Cc%10nnc[nH]%10)COC9)c7)C8=O)CC6)CC5)CC4)c3F)C2=O)C(=O)N1 (some centres unmarked) [Example 197, 3-[4-fluoro-1-oxo-5-(4-{[(1r,4r)-4-[(4-{[3-oxo-2-(3-{3-[(4H-1,2,4-triazol-3-yl)methyl]oxetan-3-yl}phenyl)-7-(trifluoromethyl)-2,3-dihydro-1H-isoindol-5-yl]methyl}piperazin-1-yl)methyl]cyclohexyl]oxy}piperidin-1-yl)-2,3-dihydro-1H-isoindol-2-yl]piperidine-2,6-dione]
